Data reported in patent US3983156A, “Substituted ω-nitroacetophenones” (Beecham Group Limited, priority 1973, dated 1976).

Test system: rat PCA response
Test: Rat Passive Cutaneous Anaphylaxis (PCA) test
Format: in vivo, rat (Wistar)
Conditions: sc, subcutaneous
Method: Some of the ω-nitroacetophenones prepared in the preceding Examples were submitted for biological testing. The test system was the Rat Passive Cutaneous Anaphylaxis (PCA) test described below in (ii).
i. Serum containing heat labile homocytotropic antibody was raised in rats by a method similar to that used by Mota. (I. Mota Immunology 1964, 7, 681).
Male Wistar rats of 250-300 g, were injected intraperitoneally with 0.5 ml of Bordatella pertussis vaccine (containing 4 × 10^10 dead organism per ml) and subcutaneously with 0.5 ml of an emulsion of 100 mg. of ovalbumin in 2 ml of saline and 3 ml of incomplete Freunds' adjuvant. Rats were bled by cardiac puncture on day 18, the blood was pooled and separated and serum stored at -20° and thawed only once before use.
ii. The P.C.A. test was similar to that described by Ovary and Bier (A. Ovary and O. E. Bier, Prod. Soc. Exp. Biol. Med. 1952, 81, 584) and Goose and Blair (J. Goose and AM.J. N Blair, Immunology 1969, 16, 769)
0.1 ml of each of six twofold serial dilutions of the serum in 0.9% saline were injected intradermally into separate sites on the shaved dorsal surface of 250-350 g Wistar rats. 72 hours later the animals were challlenged by i.v. injection of 0.3 ml of 1% ovalbumin mixed with 0.1 ml of a 5% solution of pontamine sky blue dye both in isotonic saline buffered with pH. 7.2 Sorenson buffer (P.B.S.). The rats were killed after 20 minutes and the diameter of the blue wheals at the antibody injection sites were measured. The starting dilution of the serum was adjusted so that there was no response, after challenge, at the site of injection of the highest dilution and a maximum response at the two or three lowest dilutions. Typically, six twofold serial dilutions of the serum from 1/4 to 1/128 were used.
Compounds were tested for their ability to reduce the diameter of the wheals at the injection sites of dilutions of antibody which on all the controls have less than maximum response. Amounts of the compounds were administered to rats by subcutaneous injection, into the nuchal region, of a solution of the compound in P.B.S. or as a suspension in 1% methyl cellulose, each amount to a test group of six animals at a specified time prior to intravenous challenge with ovalbumin. THe diameters of the blue wheals which developed on the tests group of aimals were compared with those on a control group of six animals treated in the same way as the test group, but which; had received an equivalent subcutaneous injection of the carrier fluid not containing the same volume of the compound under test.
% Inhibition of P.C.A. = 100 (1 - a/b)
a = The mean of the sum of the diameters of the wheals produced in the test group of animals at those antibody sites where all the control group of animals gave less than maximum response.
b = The mean of the sum of diameters of the wheals produced in the control group of amimals at those antibody sites where all the animals in the group gave less than maximum response.
The preferred method of administration was a solution of the test compound dissolved in pH 7.2 buffer and neutralised with sodium bicarbonate. For those compounds having insoluble sodium salts, the salts were isolated by reaction of the free nitro compound with 2.5N sodium hydroxide and the filtered sodium salt washed free of alkali with water. The dried salts were then administered as a suspension in 1% methyl cellulose.

SMILES	inhibition in vivo at 25 mg/kg (0 mins prior to challenge) [%]	inhibition in vivo at 25 mg/kg (30 mins prior to challenge) [%]	inhibition in vivo at 100 mg/kg (0 mins prior to challenge) [%]	inhibition in vivo at 100 mg/kg (30 mins prior to challenge) [%]	inhibition in vivo at 25 mg/kg (60 mins prior to challenge) [%]	inhibition in vivo at 100 mg/kg (60 mins prior to challenge) [%]	inhibition in vivo at 84 mg/kg (0 mins prior to challenge) [%]	inhibition in vivo at 84 mg/kg (30 mins prior to challenge) [%]
O=C(O)c1ccccc1C(=O)C[N+](=O)[O-] [Example 8, ω-nitroacetophenone-2-carboxylic acid]	12	18	48	37				
COC(=O)c1ccccc1C(=O)C[N+](=O)[O-] [Example 1, 2-methoxycarbonyl-ω-nitroacetophenone]	0		12		32	23		
CCCOC(=O)c1cc(C)c(C)cc1C(=O)C[N+](=O)[O-] [Example 5, 2-^n propoxycarbonyl-4,5-dimethyl-ω-nitroacetophenone]	7		11		44	54		
Cc1cc(C(=O)C[N+](=O)[O-])c(C(=O)OC(C)C)cc1C [Example 6, 2-Isopropoxycarbonyl-4,5-dimethyl-ω-nitroacetophenone]	16	20	30	41				
O=C(C[N+](=O)[O-])c1cccc(-c2ccccc2)c1C(=O)O [Example 10, ω-nitro-3-phenylacetophenone-2-carboxylic acid]	2	11					23	21
COC(=O)c1cccc(-c2ccccc2)c1C(=O)C[N+](=O)[O-] [Example 7]	8		14		-13	-2		
COC(=O)c1cc(C)c(C)cc1C(=O)C[N+](=O)[O-] [Example 3, 2-methoxycarbonyl-4,5-dimethyl-ω-nitroacetophenone]	22		34		51	58		
CCOC(=O)c1cc(C)c(C)cc1C(=O)C[N+](=O)[O-] [Example 4, 2-ethoxycarbonyl-4,5-dimethyl-ω-nitroacetophenone]	12		16		53	42		
Cc1cc(C(=O)O)c(C(=O)C[N+](=O)[O-])cc1C [Example 9, 4,5-dimethyl-ω-nitroacetophenone-2-carboxylic acid]	33		57		13	32		
CCOC(=O)c1ccccc1C(=O)C[N+](=O)[O-] [Example 2, 2-ethoxycarbonyl-ω-nitroacetophenone]	22		34		57	58		
